Like-named read-outs stand apart in the source and are kept apart here. Ends that are not written are not given here. Where only a bound is given, the exact number is not on record here.

Series [1] has as its system LPS-induced TNF in RAW 264.7 macrophage cells. Nature of the series: Inhibition of LPS-induced TNF in RAW 264.7 macrophages (L929 cytotoxic assay). The following applies: for depression of TNF induction by aspirated medium containing peptide: fresh RAW cells. The class given is cell-based, mouse. The protocol:
RAW 264.7 macrophage cells were grown by seeding 10^6 cells into a 162 cm^2 cell culture flask and incubated at 37° C., 5% CO2 for 1 week. RAW cell media [(Dulbecco's Modified Eagle Medium with Hepes buffer 450 ml; 2.4 mML-glutamine 3 ml (400 mM); Pen/Strep 3 ml (10^4 U/ml of Pen, 1 mg/ml strep); and 10% heat inactivated fetal bovine serum (FBS) 50 ml)] was then completely removed from flasks. 10 mls of cell dissociation solution (Sigma) was added to each flask and inc; bated at 37° C. for 10 minutes. Cells were removed from flasks, diluted in RAW cell media and centrifuged for 6 minutes. The cell pellet was resuspended in 5 ml of media/flask used, 100 μl cell suspension was removed and added to 400 μl of trypan blue and cells were counted using a hemocytometer. The cell suspension was diluted to 1×10^6 cells/ml and 1 ml of suspension was added per well of a 24 well plate. The 24 well plates were incubated at 37° C., 5% CO2 overnight for use in the assay.
After an overnight incubation, the media was aspirated from all the wells. 100 μl of Lipopolysaccharide (LPS) was added at 100 ng/100 μl. CEME, CEMA or MBI 29 was added at the desired concentration/100 μl to specified wells. […] The plates were then incubated for six hours at 37° C., 5% CO2. The supernatant was then removed from the wells and stored overnight at 4° C. For those wells in which whole bacteria were added directly to the wells, the supernatant was centrifuged in 0.2 μm filter eppendorf tubes for 5 minutes.
The supernatants were then used in cell cytotoxic L929 assay. The samples were transferred to 96 well plates. 50 μl of TNF media was added to all the wells in all the plates except to those wells in the first row. 10 μl of murine TNF standard (20 ng/ml) and 90 μl of TNF media was added in duplicate to the plate and diluted 1:2 down the plate to the second to last row. Test samples (75 μl), comprising the supernatants from the RAW cell assays, were added to separate rows in duplicate and diluted 1:3 to the second to last rows.
TNF-sensitive L929 mouse fibroblast cells were grown by seeding 10^6 cells into a 162 cm^2 cell culture flask and left to grow for 1 week. L929 cells were removed from the flask with 10 mls of trypsin-EDTA/flask and incubated 3-5 minutes. Cell suspension was diluted and centrifuged for 6 minutes. The pellet was resuspended in 5 mls of fresh L929 media/flask and counted (same as RAW cells). Cell suspension was diluted to 10^6 cells/ml. 100 μl was used to inoculate each well of the 96 well plates with the supernatants. (L929 Growth Media was the same as RAW cell media except instead of FBS, 50 mls of 10% heat inactivated horse serum was utilized; TNF Assay Media was the same as RAW cell media except 4 μg/ml Actinomycin D was added.)
The plates were incubated at 37° C. at 5% CO2 for 2 days. The media was then aspirated and replaced with 100 μl of the dye MTT (0.5 mg/ml) in modified Eagle Medium without phenol red. The plates were then incubated at 37° C. at 5% CO2 for 3 hours. The dye was then removed and replaced with 100 μl of absolute ethanol. […]
The plates were read at 570 nm in a ELISA plate reader with 690 nm reference filter. […]
TNF levels were measured six hours after the addition of E. coli 0111:B4 or E. coli Bort LPS (FIGS. 5a, 5b, 5c and FIGS. 6a and 6c as labeled). […]
In order to determine how rapidly the cationic peptides reduced LPS-induced TNF production, E. coli 0111:B4 was added at time 0 to RAW macrophages. […] Levels of TNF were measured after 6 hours. […]

Series [2] deals with RAW cells. Nature of the series: RAW cell viability by Trypan blue exclusion. The format is cell-based. Particulars: up to 50 μg peptide.
The subject of series [3] is P. aeruginosa. Nature of the series: Effect of formulation on bactericidal activity (killing, survivors over time). The class given is cell-based.
Procedure: (§1) Effect of formulation on bactericidal activity and MIC was determined using the test solutions listed below.
In series [4] the test system is E. coli.
Procedure: as §1
(§2) The media used in this experiment was Cation Adjusted Muller Hinton (CAMHB), and CAMHB +8 mM citrate.
Series [5] has as its system S. typhimurium. Particulars: S. typhimurium (C610).
Procedure: as §1, §2
Series [6] concerns E. facaelis. Particulars: E. facaelis (C625).
Procedure: as §1, §2
Series [7] relates to A. calcoacet.
Procedure: as §1, §2
Series [8] relates to E. cloacae.
Procedure: as §1, §2
Series [9] has as its system P. aeruginosa. Particulars: P. aeruginosa (H103).
Procedure: as §1, §2
For series [10] the following is noted: mice.
Procedure: Immediately afterwards LPS (10 or 20 μg) in 100 μl is injected. The mice are observed at 24 and 48 hours after injections and survivors noted.

As to `CC[C@H](C)[C@H](NC(=O)[C@H](CC(C)C)NC(=O)[C@H](C)NC(=O)[C@@H]1CCCN1C(=O)[C@H](CC(C)C)NC(=O)CNC(=O)[C@@H](NC(=O)[C@@H](NC(=O)[C@H](CC(C)C)NC(=O)[C@@H](NC(=O)[C@H](CCCCN)NC(=O)[C@H](CCCCN)NC(=O)[C@@H](NC(=O)[C@H](C)NC(=O)[C@@H](NC(=O)[C@@H](NC(=O)[C@H](CC(C)C)NC(=O)[C@H](CCCCN)NC(=O)[C@H](CCCCN)NC(=O)[C@@H](NC(=O)[C@H](Cc1ccccc1)NC(=O)[C@H](CO)NC(=O)[C@H](CCCCN)NC(=O)[C@H](Cc1c[nH]c2ccccc12)NC(=O)[C@@H](N)CCCCN)[C@@H](C)CC)[C@@H](C)O)[C@@H](C)O)C(C)C)C(C)C)[C@@H](C)O)[C@@H](C)O)C(=O)N[C@@H](CO)C(=O)O` [MBI 29], the “TNF induction in RAW cells preincubated with peptide and washed” value in series [1] (20 μg peptide 60 minutes, washed 3 times, then 10 ng or 100 ng LPS) is reported as 14,000-20,000 Units of TNF per ml. For the same molecule, the “inhibition of TNF induction by LPS” value in series [1] (E. coli 0111:B4 at time 0, peptide added at 0, 30 and 60 minutes, TNF after 6 hours) is recorded as “inhibited TNF induction by LPS in a similar manner to polymyxin B”. In addition, in series [1] (added 60 minutes after the addition of LPS), the “reduction of LPS-induced TNF when added after LPS” value is reported as “effective”. Also, the “depression of TNF induction by aspirated medium containing peptide” value was found to be 98.5% in series [1] (10 ng E. coli LPS) and 75% in series [1] (100 ng E. coli LPS). The RAW cell viability entry in series [2] is on record as “no apparent decrease”.

As for KWKSFIKKLTSAAKKVVTTAKPLISS [MBI 26], the “Survivors at Time (min.)” value is 1.3 × 10^7 in series [3] (Citrate (0.129 M) +Ascorbic Acid (100 mM), MBI 26 10 MG/ML, 0 min); 0 in series [3] (Citrate (0.129 M) +Ascorbic Acid (100 mM), MBI 26 10 MG/ML, 15 min); 0 in [3] (Citrate (0.129 M) +Ascorbic Acid (100 mM), MBI 26 10 MG/ML, 30 min); 0 in [3] (Citrate (0.129 M) +Ascorbic Acid (100 mM), MBI 26 10 MG/ML, 60 min); 1.1 × 10^7 in [3] (Citrate (0.129 M), MBI 26 10 MG/ML, 0 min); 0 in series [3] (Citrate (0.129 M), MBI 26 10 MG/ML, 15 min). Also, the “Survivors at Time (min.)” value in series [3] (Citrate (0.129 M), MBI 26 10 MG/ML, 30 min) is reported as 0; in [3] (Citrate (0.129 M), MBI 26 10 MG/ML, 60 min) it was 0; in series [3] (Citrate-Dextrose, MBI 26 10 MG/ML, 0 min), 9 × 10^6; in series [3] (Citrate-Dextrose, MBI 26 10 MG/ML, 15 min) it was 20; in series [3] (Citrate-Dextrose, MBI 26 10 MG/ML, 30 min) it was 0; in series [3] (Citrate-Dextrose, MBI 26 10 MG/ML, 60 min), 0. Besides, the “Survivors at Time (min.)” value in series [3] (Citrate-Phosphate Dextrose, MBI 26 10 MG/ML, 0 min) was 0; in series [3] (Citrate-Phosphate Dextrose, MBI 26 10 MG/ML, 30 min) it was 0; in series [3] (Citrate-Phosphate Dextrose, MBI 26 10 MG/ML, 60 min), 0; in series [3] (Dextran, MBI 26 (20 μg), 0 min), 1.9 × 10^7; in [3] (Dextran, MBI 26 (20 μg), 15 min) it was 1.2 × 10^6; in [3] (Dextran, MBI 26 (20 μg), 30 min) it was 1 × 10^6. Moreover, the “Survivors at Time (min.)” value in series [3] (Dextran, MBI 26 (20 μg), 60 min) was 8.5 × 10^5. Also, the MIC in series [4] (E. coli (111:B4), CAMHB) was 8 µg/mL; in series [4] (E. coli (111:B4), CAMHB + Citrate (8 mM)) it was 2 µg/mL; in series [4] (E. coli (Bort), CAMHB), 16 µg/mL; in [4] (E. coli (Bort), CAMHB + Citrate (8 mM)) it was 8 µg/mL; in series [4] (E. coli (UB 1005), CAMHB), 4 µg/mL; in series [4] (E. coli (UB 1005), CAMHB + Citrate (8 mM)), 2 µg/mL. For the same molecule, the MIC in [5] (CAMHB) is 8 µg/mL; in [5] (CAMHB + Citrate (8 mM)), 2 µg/mL; in series [6] (CAMHB), 16 µg/mL; in [6] (CAMHB + Citrate (8 mM)) it was above 32 µg/mL; in [7] (A. calcoacet (C403), CAMHB), 1 µg/mL; in [7] (A. calcoacet (C403), CAMHB + Citrate (8 mM)), 1 µg/mL. The MIC is 8 µg/mL in [7] (A. calcoacet. (C402), CAMHB); 4 µg/mL in series [7] (A. calcoacet. (C402), CAMHB + Citrate (8 mM)); 8 µg/mL in series [8] (E. cloacae (C601), CAMHB); 4 µg/mL in [8] (E. cloacae (C601), CAMHB + Citrate (8 mM)); 8 µg/mL in series [8] (E. cloacae (C602), CAMHB); 4 µg/mL in [8] (E. cloacae (C602), CAMHB + Citrate (8 mM)). For the same molecule, the MIC in series [8] (E. cloacae (C603), CAMHB) was 4 µg/mL; in [8] (E. cloacae (C603), CAMHB + Citrate (8 mM)), 2 µg/mL; in series [9] (CAMHB) it was 16 µg/mL; in series [9] (CAMHB + Citrate (8 mM)), 2 µg/mL. In addition, the non-toxic dose result in [10] is on record as “up to 30.6 mg/kg”.

These data come from patent publication US6906035B2, “Antimicrobial cationic peptides” (priority 1995, dated 2005).
